Assay results from patent publication US7754721B2, “Arylpiperazine derivatives and uses thereof” (Roche Palo Alto LLC, priority 2006, dated 2010).

Molecular target: T1, human serotonin transporter (hSERT) (Homo sapiens, UniProt P31645)
T1 construct: expressed in transfected cells; membranes prepared
Assay: hSERT scintillation proximity assay, competition with [3H]-Citalopram
Type: binding
Details: membranes of HEK-293 cells, Cheng-Prusoff
Protocol: The screening assay of this example was used to determine the affinity of ligands at the hSERT transporter by competition with [^3H]-Citalopram.
Scintillation Proximity Assay (SPA) works by bringing radioligand within close proximity to the bead's scintillant to stimulate light emission. In this assay, the receptor-containing membranes were pre-coupled to the SPA beads and the binding of the appropriate radioligand to the transporter was measured. The light emission was proportional to the amount of bound radioligand. Unbound radioligand produced no signal as a result of distant proximity to scintillant (lack of energy transfer). […]
Cell membranes were prepared using a membrane preparation buffer of 50 mM TRIS (pH 7.4). […] After a second centrifugation, the pellet was re-homogenized and brought to a final volume determined during the assay. […]
The % inhibition was calculated for each compound tested [(Compound counts per minute (CPM) at maximum concentration-Non-Specific CPM)/Total CPM*100]. […]
[formula] where max=total binding, min=non specific binding, x=concentration (M) of the tested compound and n=Hill slope. The inhibition dissociation constant (Ki) of each compound was determined according to the method of Cheng-Prusoff and then converted into negative logarithm (pKi) of the Ki.

T1 sequence (P31645 whole entry): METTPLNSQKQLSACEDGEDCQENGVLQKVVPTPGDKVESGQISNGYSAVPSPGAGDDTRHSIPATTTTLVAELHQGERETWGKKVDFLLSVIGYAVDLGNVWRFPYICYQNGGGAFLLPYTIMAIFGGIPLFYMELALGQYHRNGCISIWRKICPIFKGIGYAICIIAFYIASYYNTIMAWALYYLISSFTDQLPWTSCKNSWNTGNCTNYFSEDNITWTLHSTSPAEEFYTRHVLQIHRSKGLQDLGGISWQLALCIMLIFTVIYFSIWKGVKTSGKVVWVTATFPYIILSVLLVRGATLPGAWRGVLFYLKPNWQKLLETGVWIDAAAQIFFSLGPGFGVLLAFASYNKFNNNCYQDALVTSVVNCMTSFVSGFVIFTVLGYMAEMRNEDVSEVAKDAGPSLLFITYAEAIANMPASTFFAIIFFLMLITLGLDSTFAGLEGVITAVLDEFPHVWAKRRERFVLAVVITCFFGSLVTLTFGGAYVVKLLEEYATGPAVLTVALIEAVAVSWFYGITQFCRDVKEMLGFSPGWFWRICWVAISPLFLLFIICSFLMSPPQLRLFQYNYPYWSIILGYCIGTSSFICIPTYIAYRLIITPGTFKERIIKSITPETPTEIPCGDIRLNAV

SMILES: c1ccc(CC2CNCCN2c2ccc3cnccc3c2)cc1 (stereo not shown) [6-(2-Benzyl-piperazin-1-yl)-isoquinoline]
- Ki: ~0.135 nM
